# Data as given in patent US20250368682A1, “NOVEL POLYPEPTIDE COMPOSITION FOR INTRACELLULAR TRANSFECTION” (AZOTHBIO INC., priority 2022, published 2025).
# Legend:
# Format in all cases: cell-based
# [1] = tested on: Jurkat T cells; experiment: pEGFP-N3 plasmid DNA delivery, GFP expression by immunoblotting; details: for plasmid DNA delivery efficiency depending on leucine length: 10 or 11 leucines with 2×NLS, same experiment as Example 1-1; for GFP expression depending on copy number of NLS: 2, 3 or 4 copies of NLS after 10 leucines
# Protocol: Specific sequences thereof are shown in Table 2 below (Peptides 1 to 10). Each of the above peptides at a concentration of 4 μM was mixed with 2 μg of pEGFP-N3 plasmid for 30 minutes in a CO2 incubator at 37° C. After transfection of the plasmids into Jurkat T cells for 30 minutes, the expression of GFP was analyzed by immunoblotting after 24 hours (FIG. 1).
# Peptides containing 10 or 11 leucine amino acids and 2×NLS linked thereto were prepared (Peptides 1 and 11), and based on these peptides, the effect of the number of leucine amino acids on the transmission level was further determined. Each of the above peptides was subjected to the same experiment as in Example 1-1, and then the expression of GFP was analyzed by immunoblotting (FIG. 2).
# Peptides were prepared by varying the copy number of NLS, located following the 10 leucine amino acid sequences, to 2, 3, or 4, and specific sequences thereof are shown in Table 2 below (Peptides 1, 12, and 13). For each peptide, the change in GFP expression depending on the copy number of NLS was confirmed by immunoblotting (FIG. 3).
# Accordingly, the copy number of NLS was set to 2, and a peptide (L10-2×NLS) in which the NLS amino acid sequence was located at the C-terminus, following leucine, and a peptide (2×NLS-L10) in which the NLS amino acid sequence was located at the N-terminus, preceding leucine, were prepared. Each of the above peptides (Peptide 1 and 14) was mixed with pEGFP-N3 and transfected into Jurkat T cells. Then, the expression changes of GFP were compared.
# L10-2×NLS at different concentrations (2, 3, 4, 5, or 6 μM) was mixed with 2 μg of pEGFP-N3 and transfected into Jurkat T cells. The expression of GFP was then confirmed by immunoblotting (FIG. 5).
# Next, pEGFP-N3 at different concentrations (0, 0.25, 0.5, 1, 2, 4, 5, or 6 μg) was mixed with 4 μM of L10-2×NLS and transfected into Jurkat T cells. The expression of GFP was then confirmed by immunoblotting (FIG. 6).
# First, 4 μM L10-2×NLS and 2 μg pEGFP-N3 were mixed at 4, 16, 25, 37, or 42° C. for 30 minutes and transfected into Jurkat T cells for 30 minutes. […] (FIG. 7).
# Thus, the temperature was set to 37° C., and 4 μM L10-2×NLS and 2 μg pEGFP-N3 were mixed for different times (10, 20, 30, 40, 50, or 60 minutes).
# Finally, in an experiment as to the buffer used for the mixing, 4 μM of L10-2×NLS and 2 μg of pEGFP-N3 were mixed with Opti-MEM, DPBS, or Serum free RPMI-1640 (SF) buffer, respectively.
# L10-2×NLS (4 μM) and pEGFP-N3 (2 μg) were mixed according to the above optimized conditions and transfected into Jurkat T cells for 0.5, 1, 2, 3, 4, or 5 hours to compare the changes in GFP expression over time (FIG. 10).
# [2] = tested on: Jurkat T cells; experiment: Fluorescein-labeled plasmid DNA delivery efficiency by FACS; details: after 0.5 hours; 2 μg fluorescein-labeled plasmid DNA, 4 μM L10-2×NLS
# Protocol: Fluorescein-labeled plasmid DNA (Takara) (2 μg) was mixed with L10-2×NLS (4 μM) and transfected into Jurkat T cells for 0.5, 1, 2, 3, 4, or 5 hours. Then, the delivery efficiency of the plasmid DNA into Jurkat T cells was analyzed using Novocyte FACS (Agilent) (FIG. 16).
# [3] = tested on: Jurkat T cells; experiment: Location of fluorescein-labeled plasmid DNA by fluorescence microscope (Hoechst 33342)
# From the text: Next, fluorescein-labeled plasmid DNA and L10-2×NLS were mixed and transfected into Jurkat T cells, followed by treatment with nucleus staining reagent Hoechst 33342 (ThermoFisher). The location of the plasmid DNA in Jurkat T cells was then confirmed using a fluorescence microscope (Leica) (FIG. 17), and the data were quantified and analyzed through graphical representation (FIG. 18).
# [4] = tested on: human primary T cells; experiment: CAR plasmid DNA delivery, CAR expression by immunoblotting with FLAG antibody; details: 4 μM L10-2×NLS, 2 μg FLAG-tagged CAR plasmid DNA, after 24 hours
# Protocol: L10-2×NLS (4 μM) and FLAG-tagged CAR plasmid DNA (2 μg) were mixed and transfected into human primary T cells. After 24 hours, CAR expression in the human primary CD8+ T cells was confirmed by immunoblotting using FLAG antibody (FIG. 19).
# [5] = tested on: Jurkat T cells; experiment: FITC-labeled IgG antibody delivery efficiency by FACS; details: L10-2×NLS 4 μM or higher, 1 μg FITC-labeled IgG, 2 hours
# Protocol: FITC-labeled IgG (Thermofisher) (1 μg) was mixed with L10-2×NLS at different concentrations (0.5, 1, 2, 4, or 6 μM). Each mixture was treated with Jurkat T cells for 2 hours, and then the antibody delivery efficiency to cells was confirmed using Novocyte FACS (Agilent) (FIG. 21), and the presence of the corresponding antibodies in cells was observed using a fluorescence microscope (Leica) (FIG. 22).
# [6] = tested on: Jurkat T cells; experiment: Cell morphology and viability (MTT assay) after transfection; details: 4 μM L10-2×NLS, 2 μg pEGFP-N3, morphology after 24 hours
# Protocol: L10-2×NLS (4 μM) and pEGFP-N3 (2 μg) were mixed and transfected into Jurkat T cells, and changes in cell morphology after 24 hours were observed (FIG. 14). The cell viability after transfection was analyzed using MTT assay (FIG. 15).
substance,measurement,setting,value
N′-LLLLLLLLLLLPKKKRKVPKKKRKV-C′ (Ac-LLLLLLLLLLLPKKKRKVPKKKRKV-NH2) [Peptide 11],plasmid DNA delivery efficiency depending on leucine length,[1],a certain level of high efficiency was maintained
N′-LLLLLLLLLLPKKKRKVPKKKRKVPKKKRKVPKKKRKV-C′ (Ac-LLLLLLLLLLPKKKRKVPKKKRKVPKKKRKVPKKKRKV-NH2) [Peptide 13],GFP expression depending on copy number of NLS,[1],maintained above a certain level
N′-LLLLLLLLLLPKKKRKVPKKKRKVPKKKRKV-C′ (Ac-LLLLLLLLLLPKKKRKVPKKKRKVPKKKRKV-NH2) [Peptide 12],GFP expression depending on copy number of NLS,[1],maintained above a certain level
Ac-LLLLLLLLLLPKKKRKVPKKKRKV-NH2 [L10-2×NLS],plasmid DNA delivery efficiency,[2],about 90%
same,plasmid DNA delivery to cells,[3]; 1 hour after transfection,delivered to the majority of cells
same,"plasmid DNA found in the nucleus, efficiency",[3]; at 4 hours,approximately 40%
same,CAR expression in human primary CD8+ T cells,[4],confirmed
same,transfection level compared to Lipofectamine,"[1]; 4 μM peptide, 2 μg pEGFP-N3, immunoblot after 24 hours",significantly higher level compared to Lipofectamine®
same,GFP expression depending on hydrophobic amino acid type,"[1]; 4 μM peptide, 2 μg pEGFP-N3, mixed 30 min at 37° C., transfection 30 min, immunoblot after 24 hours, among Peptides 1 to 10",highest GFP expression
same,GFP expression depending on copy number of NLS,[1],highest expression of GFP
same,plasmid DNA delivery efficiency depending on leucine length,[1],highest efficiency
same,transformation efficiency depending on N-terminal/C-terminal location of NLS,[1]; L10-2×NLS compared with 2×NLS-L10,high efficiency
same,GFP expression depending on mixing buffer,"[1]; Opti-MEM, DPBS or Serum free RPMI-1640",transfection levels were maintained
same,GFP expression efficiency depending on pEGFP-N3 amount,"[1]; at 2 μg pEGFP-N3 (tested 0-6 μg), 4 μM L10-2×NLS",highest
same,GFP expression efficiency depending on L10-2×NLS concentration,"[1]; at 4 μM (tested 2, 3, 4, 5, 6 μM), 2 μg pEGFP-N3",highest expression efficiency of GFP
same,GFP expression depending on mixing temperature,"[1]; mixing at 37° C. (tested 4, 16, 25, 37, 42° C.) for 30 minutes",highest expression of GFP
same,GFP expression depending on mixing time,"[1]; mixing time 30 minutes (tested 10-60 minutes), 37° C.",highest expression level
same,GFP expression depending on transfection time,[1]; transfection for 0.5 or 1 hour (tested 0.5-5 hours),sufficient to deliver plasmid DNA
same,antibody delivery efficiency,[5],approximately 90%
same,cell damage or cell death after transfection,[6],did not cause any damage or cell death
